{"source": "patent US11684614B2", "about": "“Formulations of hydroxypyridonate actinide/lanthanide decorporation agents” (priority 2017, dated 2023)", "key": {"[1]": {"test": "Related substance assay / chromatographic API purity of prototype formulations", "type": "physicochemical", "source_text": "Analytical Method I for Related Substance Assay (TABLE 2.5):\nThis method was previously established and validated (see 3,4,3-L1(1,2-HOPO)—Excipient Compatibility Study; EXAMPLE 1). Suitability was therefore not re-evaluated as part of this study.\nAnalytical Method I for Related Substance Assay (TABLE 2.6):\nThe related substances, estimated as area (%) from the chromatograms, and the chromatographic purity of 3,4,3-L1(1,2-HOPO) in selected prototype formulations are listed in TABLE 2.28."}, "[2]": {"type": "in vivo, Swiss-Webster mice", "settings": "for urinary excretion, of administered dose: rodents (mice)", "source_text": "(§1) Formulated material was used in the single dose in vivo ADME characterization studies in Sprague Dawley rats and Swiss-Webster mice with 14C-labeled 3,4,3-L1(1,2-HOPO).\n(§2) Pharmacokinetic parameters and disposition/biodistribution of 3,4,3-L1(1,2-HOPO) were characterized in vivo (with the aid of two 14C labels on the spermine backbone of the parent product) in two non-GLP studies using Swiss-Webster mice and Sprague Dawley rats. The study designs for these two studies are shown in TABLE 5.1 and TABLE 5.2, respectively. Groups of six mice (3 male, 3 female) were given a single dose of [14C]-3,4,3-L1(1,2-HOPO) via iv, ip, or po routes, respectively. An additional group of six mice (3 male, 3 female) were administered the 14C-labeled API with permeability enhancer (10% sodium oleate) by oral gavage (po). Similarly, groups of six rats (3 male, 3 female) were administered a single iv dose of the 14C-labeled API or a single po dose of the 14C-labeled API with 10% sodium oleate. In each of these studies, samples were collected at scheduled time points up to 24 hr post-dose and analyzed for 14C content using liquid scintillation counting. Blood, liver, kidney, feces and urine were collected and analyzed from the mice. Blood, brain, liver, kidney, lungs, spleen, skeletal muscle tissues, gastrointestinal (GI) tract samples, carcasses, feces, and urine were collected and analyzed from the rats."}, "[3]": {"test": "Radiolabeled in vivo ADME study in rats (with metabolite profiling)", "parameters": "species or system Sprague Dawley rats", "settings": "for urinary excretion, of administered dose: rodents (rats)", "source_text": "as §1, §2\nThe principal excretion routes of radioactivity from [14C]-3,4,3-L1(1,2-HOPO) were both the feces and urine after an iv dose based on high levels of radioactivity in both feces and urine as well as significant radioactivity in the excretory tissues, kidney, liver and GI tract. Fecal elimination by 24 hr post-dose accounted for approximately 62% and 16% of the iv administered dose in mice and rats, respectively. Urinary excretion accounted for approximately 12-23% of the iv administered dose in these rodents with renal excretion of 14C beginning as early as 5 min after iv injection in mice. In contrast, following oral administration, excretion was primarily by the fecal route accounting for approximately 89% and 41% of the orally administered dose in mice and rats, respectively, by 24 h post-dose. Urinary excretion accounted for <1% of the orally administered dose and low radioactivity levels were detected in systemic circulation and in tissues except for the GI tract. […] Based on the colonic transit time in rats of 15.5 hr, 11 the radioactivity found in the feces in the first 24 hr after po administration is most likely unabsorbed compound. […] Metabolite profiling of [14C]-3,4,3-L1(1,2-HOPO) was performed using an HPLC method on selected urine, feces, kidney, liver, and lung samples from the Sprague Dawley rat. Only samples containing the highest total radioactive levels were selected for analysis. A total of 11 peaks were detected, of which 6 were from uncharacterized interactions between the test article and matrix components because they were also seen in spiked blank matrix controls. These 6 peaks are not metabolites and are considered alternate forms of the parent compound (e.g. complexes of the test article with metallic ions). The 5 other radioactive species (peaks P1-P4 and P10) are considered potential metabolites. Feces-specific metabolite peaks P2, P3, and P10 represented a combined 10.5-11.4% and 0.5-4.2% of the administered dose after po or iv administration, respectively, in rats. Peak P10 was the most abundant peak in all samples analyzed. It represented up to 10% of the administered dose in feces after po administration while the other two feces-specific peaks represented <1% of the administered dose after po administration. Peak P10 was also the predominant, and sometimes the only, peak in feces samples after iv administration. […]"}}, "note": "Read-outs that look alike come from different tables or passages of the source."}
{"compound": "O=C(NCCCN(CCCCN(CCCNC(=O)c1cccc(=O)n1O)C(=O)c1cccc(=O)n1O)C(=O)c1cccc(=O)n1O)c1cccc(=O)n1O", "note": "[Drug Substance Control]", "values": [{"measurement": "Chromatographic Purity of 3,4,3-LI(1,2-HOPO)", "setting": "[1]; 3,4,3-LI(1,2-HOPO) peak", "result": "97.45 area (%)"}, {"measurement": "Related Substances, Unknown peak", "setting": "[1]; RRT 0.59", "result": "0.01 area (%)"}, {"measurement": "Related Substances, Unknown peak", "setting": "[1]; RRT 0.61", "result": "0.01 area (%)"}, {"measurement": "Related Substances, Unknown peak", "setting": "[1]; RRT 0.62", "result": "0.01 area (%)"}, {"measurement": "Related Substances, Unknown peak", "setting": "[1]; RRT 0.87", "result": "0.11 area (%)"}, {"measurement": "Related Substances, Unknown peak", "setting": "[1]; RRT 0.89", "result": "0.13 area (%)"}, {"measurement": "Related Substances, Unknown peak", "setting": "[1]; RRT 1.02", "result": "0.08 area (%)"}, {"measurement": "Related Substances, Unknown peak", "setting": "[1]; RRT 1.11", "result": "0.04 area (%)"}, {"measurement": "Related Substances, Unknown peak", "setting": "[1]; RRT 1.27", "result": "0.17 area (%)"}, {"measurement": "Related Substances, Unknown peak", "setting": "[1]; RRT 1.30", "result": "0.10 area (%)"}, {"measurement": "Related Substances, Unknown peak", "setting": "[1]; RRT 1.39", "result": "0.20 area (%)"}, {"measurement": "Related Substances, Unknown peak", "setting": "[1]; RRT 1.40", "result": "0.04 area (%)"}, {"measurement": "Related Substances, Unknown peak", "setting": "[1]; RRT 1.46", "result": "0.60 area (%)"}, {"measurement": "Related Substances, Unknown peak", "setting": "[1]; RRT 1.74", "result": "0.15 area (%)"}, {"measurement": "Related Substances, Unknown peak", "setting": "[1]; RRT 1.89", "result": "0.18 area (%)"}, {"measurement": "Related Substances, Unknown peak", "setting": "[1]; RRT 2.17", "result": "0.33 area (%)"}, {"measurement": "Related Substances, Unknown peak", "setting": "[1]; RRT 2.30", "result": "0.05 area (%)"}, {"measurement": "Related Substances, Unknown peak", "setting": "[1]; RRT 2.58", "result": "0.25 area (%)"}, {"measurement": "Related Substances, Unknown peak", "setting": "[1]; RRT 2.79", "result": "0.11 area (%)"}]}
{"compound": "[14C]-3,4,3-L1(1,2-HOPO)", "values": [{"measurement": "time of highest level of radioactivity in kidneys and liver", "setting": "[2]; ip, mice", "result": 1, "unit": "h"}, {"measurement": "fecal elimination, of administered dose", "setting": "[2]; iv, by 24 hr post-dose, mice", "result": "approximately 62%"}, {"measurement": "AUC (plasma radioactivity)", "setting": "[2]; iv, female mice", "result": 66.2, "unit": "hr Pg-eq/ml"}, {"measurement": "C0 (plasma radioactivity)", "setting": "[2]; iv, female mice", "result": 342, "unit": "Pg-eq/mL"}, {"measurement": "AUC (plasma radioactivity)", "setting": "[2]; iv, male mice", "result": 41.7, "unit": "hr Pg-eq/ml"}, {"measurement": "C0 (plasma radioactivity)", "setting": "[2]; iv, male mice", "result": 76, "unit": "Pg-eq/mL"}, {"measurement": "time of highest level of radioactivity in kidneys and liver", "setting": "[2]; iv, mice", "result": 1, "unit": "h"}, {"measurement": "urinary excretion, of administered dose", "setting": "[2]; iv", "result": "12-23%"}, {"measurement": "oral bioavailability improvement with sodium oleate", "setting": "[2]; mice", "result": "2- to 3 fold"}, {"measurement": "fecal excretion, of administered dose", "setting": "[2]; oral, by 24 h post-dose, mice", "result": "approximately 89%"}, {"measurement": "bioavailability of total radioactivity", "setting": "[2]; oral, mice", "result": "< 3", "unit": "%"}, {"measurement": "urinary excretion, of administered dose", "setting": "[2]; oral", "result": "< 1", "unit": "%"}, {"measurement": "general rank order of tissue concentrations", "setting": "[3]; iv, 2 hr time point, rats", "result": "kidney>liver>lung>brain spleen muscle"}, {"measurement": "fecal elimination, of administered dose", "setting": "[3]; iv, by 24 hr post-dose, rats", "result": "~16", "unit": "%"}, {"measurement": "AUC (plasma radioactivity)", "setting": "[3]; iv, female rats", "result": 211, "unit": "hr Pg-eq/ml"}, {"measurement": "C0 (plasma radioactivity)", "setting": "[3]; iv, female rats", "result": 422, "unit": "Pg-eq/ml"}, {"measurement": "AUC (plasma radioactivity)", "setting": "[3]; iv, male rats", "result": 354, "unit": "hr Pg-eq/ml"}, {"measurement": "C0 (plasma radioactivity)", "setting": "[3]; iv, male rats", "result": 463, "unit": "Pg-eq/ml"}, {"measurement": "feces-specific metabolite peaks P2, P3, and P10 combined, of the administered dose", "setting": "[3]; iv, rats", "result": "0.5-4.2%"}, {"measurement": "metabolite peak P1 in urine, of the administered dose", "setting": "[3]; iv, rats", "result": "≤ 0.4", "unit": "%"}, {"measurement": "time of highest level of radioactivity in kidneys and liver", "setting": "[3]; iv, rats", "result": 2, "unit": "h"}, {"measurement": "urinary excretion, of administered dose", "setting": "[3]; iv", "result": "12-23%"}, {"measurement": "fecal excretion, of administered dose", "setting": "[3]; oral, by 24 h post-dose, rats", "result": "~41", "unit": "%"}, {"measurement": "bioavailability of total radioactivity", "setting": "[3]; oral, rats", "result": "< 3", "unit": "%"}, {"measurement": "putative major metabolite (P10), of an administered oral dose", "setting": "[3]; oral, rats", "result": "~10", "unit": "%"}, {"measurement": "urinary excretion, of administered dose", "setting": "[3]; oral", "result": "< 1", "unit": "%"}, {"measurement": "feces-specific metabolite peaks P2, P3, and P10 combined, of the administered dose", "setting": "[3]; po, rats", "result": "10.5-11.4%"}, {"measurement": "other two feces-specific peaks, of the administered dose", "setting": "[3]; po, rats", "result": "< 1", "unit": "%"}, {"measurement": "peak P10 in feces, of the administered dose", "setting": "[3]; po, rats", "result": "up to 10%"}]}
